Assay results from patent US20100035793A1, “Modulators” (priority 2005, published 2010).
Non-standard residues stand in square brackets, D forms with d. No end group written: not given here. pY = N[C@@H](Cc1ccc(OP(=O)(O)O)cc1)C(=O)O

Tests used:
[1] = biological target: JAK2 (Homo sapiens, UniProt O60674); conditions: cited from earlier work
[2] = biological target: T1, Stat3 (Homo sapiens, UniProt P40763); conditions: cited from earlier work
[3] = biological target: T1, Stat3; conditions: cited from earlier work; remark: listed apart in the source
[4] = test system: breast carcinoma cells; conditions: cited from earlier work
[5] = test system: Stat3; experiment: Western blot of Stat3 expression in KF48 infected with retroviral Stat3 siRNAs; type: cell-based, human; conditions: KF48 infected with retrovirus expressing Stat3 siRNAs
Procedure: (§1) These vectors containing Stat3 siRNA targets and empty vector were transfected into 293T-based Phoenix-Ampho packaging cell line for 7-9 h, and the amphotropic retroviruses were harvested 48 h later, pelleted to remove nonadherent cells and cellular debris, and filtered through a […] cellulose acetate membrane. The keloid fibroblasts were infected overnight in the presence of 4 μg/ml polybrene, and replaced with fresh 10% FBS/DMEM the following day. Cells were assayed for Western blot 48 h after infection, or for XTT cell proliferation, or for migration assay which was performed by replating the cells into 8 μM Transwell membrane and fixed 24 h later as described above.
(§2) Western blot. Cells were either harvested in radioimmune precipitation assay (RIPA) buffer (150 mM NaCl, 50 mM Tris-HCl, pH 7.2, 1% deoxycholic acid, 1% Triton X-100, 0.25 mM EDTA, pH 8.0) containing protease inhibitor cocktail (Roche Diagnostics Corporation, Indianapolis, Ind., USA), or lysis buffer containing 150 mM NaCl, 10 mM Tris-HCl, pH 7.4, 0.5% Triton-X-100, 0.5% NP-40, 1 mM EDTA, 0.2 mM sodium vanadate, supplemented with protease inhibitor tablet. Total cell lysates were collected after centrifugation for 10 min at 4° C., and resolved in 7.5% or 10% polyacrylamide gel electrophoresis, and transferred to PVDF membranes (Bio-Rad Laboratories, Hercules, Calif., USA). The membranes were blotted with anti-phosphoTyr705 Stat3 antibody (1:1000 dilution; Cell Signaling, Beverly, Mass., USA) overnight at 4° C. overnight in PBS containing 1% BSA and 0.1% Tween 20, washed with PBS containing 0.2% Tween 20, and incubated with secondary anti-rabbit IgG antibody (1:2000 dilution; Sigma, Saint Louis, Mo., USA) for 1 h at room temperature, washed with PBS containing 0.2% Tween 20, followed by enhanced chemiluminescence (Amersham Biosciences, Buckinghamshire, UK) or Lumi-Light (Roche Diagnostics Corporation, Indianapolis, USA), and autoradiography. The membranes were stripped with Restore Western Blotting Stripping Buffer (Pierce, Rockford, Ill., USA) according to manufacturer's instructions and reblotted with anti-phosphoSer727 Stat3 (1:1000 dilution; Cell Signaling, Beverly, Mass., USA) and secondary anti-mouse IgG antibody (1:2000 dilution; Sigma, Saint Louis, Mo., USA). The stripping and reblotting procedure was repeated with monoclonal anti-Stat3 (1:1000 dilution; BD Transduction Laboratories), polyclonal anti-actin (1:1000 dilution; Sigma) and monoclonal anti-collagen antibody (1:1000 dilution; MONOSAN).

[6] = test system: KF48 keloid fibroblasts; experiment: Scratch-wound migration assay; type: cell-based, human; conditions: KF48 infected with Stat3 siRNA retrovirus, 15 h after wounding, vs vector
Procedure: Cell migration in keloidflbroblasts is inhibited by Stat3 siRNA and Cucurbitacin I. To examine the role of Stat3 in cell migration of skin fibroblasts, KF48 cells were infected with retrovirus expressing Stat3 siRNAs and scratch assays were performed as previously described. […] Three non-overlapping fields were acquired, and graphically illustrated as mean±SD in FIG. 8B. Transmembrane cell migration assays were also performed in triplicates as described earlier, and quantified as mean±SD (FIG. 8C). […] The right panels in FIG. 8B and 8C depict immunoblots of Stat3 and actin to show the efficiencies of inhibition by the Stat3 siRNAs.
The role of Stat3 in cell migration was also examined using Cucurbitacin I in the scratch assay. KF48 cells were first incubated with 10 μg/ml mitomycin C for 2 h, before treating for 30 min with DMSO or 1 μM Cucurbitacin I. The scratch-wound was performed, followed by further incubation in normal growth media. Pictures were taken at 0 h, 22 h and 48 h after wounding.
Migration assay. For migration assay using the scratch method, cells were grown to confluence and incubated with 10 μg/ml mitomycin C for 2 h, before a scratch wound was introduced using a yellow pipette tip. Cells were further incubated in normal growth media and pictures were taken at 0 h, 14 h, 15 h, 22 h, or 48 h after wounding. Three non-overlapping fields were captured by Axiovert 135 microscope from Zeiss and cells migrated into the wound site were counted and presented as mean±SD.

[7] = test system: KF48 keloid fibroblasts; experiment: Transwell migration assay; type: cell-based, human; conditions: KF48 infected with Stat3 siRNA retrovirus, vs vector
Procedure: as §1
Migration assay was also performed using the Transwell 8.0 μM pore size polycarbonate membrane (Corning Inc.). 1×10^4 cells/well were seeded at the top of the insert in 0.2 ml serum-free DMEM, with 0.5 ml 10% FBS/DMEM in the bottom chamber as chemoattractant. 24 h later, cells were washed once in cold PBS, before fixing with 4% paraformaldehyde in PBS for 15 min at room temperature. Cells were permeabilized with 0.1% Triton X-100 in PBS for 3 min at room temperature, and stained with haematoxylin for 10 min at room temperature, followed by destain with water thrice. Cells from the top of the inserts were removed by cotton swabs, and inserts were left to dry. The inserts were mounted onto slides and three non-overlapping fields of cells migrated to the bottom of the inserts were captured using Leica DM4000 B microscope.

[8] = test system: Stat3; experiment: Western blot of Stat3 expression in packaging cells transfected with Stat3 siRNA vectors; parameters: species or system human; conditions: 293T-based amphotropic packaging cell line, FIG. 5A left panel
Excerpt: Retroviral Stat3 siRNA. Four different targets designed against STAT 3 were selected and cloned into BglII and XhoI into pSUPER.retro.puro from OligoEngine, and sequenced (STAT 3 Genbank Accession number NM_139276). The four targets are named STAT 3 siRNA 1 (nt. 461-480) SEQ ID 1, STAT 3 siRNA 2 (nt. 1264-1283) SEQ ID 2, STAT 3 siRNA 3 (nt. 364-383) GATTGGGCATATGCGGCCA, and STAT 3 siRNA 4 (nt. 1662-1681) SEQ ID 3. The corresponding primers with a 9-nt short hairpin in the middle (bold) are
as §1
as §2, with “The stripping and reblotting procedure was repeated with monoclonal anti-Stat3 (1:1000 dilution; BD Transduction Laboratories), polyclonal anti-actin (1:1000 dilution; Sigma) and monoclonal anti-collagen antibody (1:1000 dilution; MONOSAN).” left out

[9] = biological target: T1, Stat3; conditions: cited from earlier work; remark: listed apart in the source
[10] = test system: collagen; experiment: Western blot of collagen production in KF48 keloid fibroblasts; type: cell-based, human; conditions: KF48 infected with retroviral Stat3 siRNAs, FIG. 5A right panel
Procedure: as §1
Inhibition of Stat3 was also evaluated by incubating KF48 for 30 min with various doses of Cucurbitacin I, an inhibitor of Jak2/Stat3 activation (32), or with DMSO alone as a control, followed by further incubation in normal growth media for 48 h. […] Cucurbitacin I was acquired from Galchimia (A Corufia, Spain).
as §2, with “The membranes were stripped with Restore Western Blotting Stripping Buffer (Pierce, Rockford, Ill., USA) according to manufacturer's instructions and reblotted with anti-phosphoSer727 Stat3 (1:1000 dilution; Cell Signaling, Beverly, Mass., USA) and secondary anti-mouse IgG antibody (1:2000 dilution; Sigma, Saint Louis, Mo., USA). The stripping and reblotting procedure was repeated with monoclonal anti-Stat3 (1:1000 dilution; BD Transduction Laboratories), polyclonal anti-actin (1:1000 dilution; Sigma) and monoclonal anti-collagen antibody (1:1000 dilution; MONOSAN).” left out
Methods of assessing polypeptides regulated by STAT Collagen may be regulated by STAT 3 activation. monoclonal anti-human collagen I, II, III Was purchased from MONOSAN (Uden, Netherlands). […] These were detected via western blot as described above.

[11] = test system: KF48 keloid fibroblasts; experiment: XTT proliferation assay; type: cell-based, human
Excerpt: Inhibition of Stat3 decreases cell proliferation. Enhanced fibroblast proliferation is a characteristic of keloid tissue. In agreement with this, keloid fibroblasts grown in normal culture conditions proliferated faster than normal fibroblasts, as observed in KF48 and KF107 compared to NF2 and NF4 (FIG. 6A). To investigate whether Stat3 is involved in the enhanced keloid fibroblast proliferation, KF48 was infected with retrovirus expressing Stat3 siRNAs, and cell proliferation was examined. […] XTT proliferation assay. Cells seeded at 3,000 cells/well in 96-well plates and grown in normal growth conditions, or infected with retroviral Stat3 siRNAs, were assayed for proliferation using the XrT proliferation kit (Roche) according to the manufacturer's instructions. The readings were taken at 450 nm and referenced against 690 nm, 2 h after the addition of the XrT reagent. Each sample was performed at quadruplicates in two to three independent experiments. Data are presented as mean±SD
Cell proliferation was also investigated by treating KF48 cells with various doses of Cucurbitacin I or with DMSO control, before incubating in normal growth media and examined daily over 4 days. Cucurbitacin I concentration as low as I μM was able to inhibit cell proliferation of KF48 compared to DMSO and untreated control (0 μM), whereas Cucurbitacin I exposure at 5 μM and above seemed to cause cell death (FIG. 6C).

Chain of JAK2 (O60674 whole entry, species assumed): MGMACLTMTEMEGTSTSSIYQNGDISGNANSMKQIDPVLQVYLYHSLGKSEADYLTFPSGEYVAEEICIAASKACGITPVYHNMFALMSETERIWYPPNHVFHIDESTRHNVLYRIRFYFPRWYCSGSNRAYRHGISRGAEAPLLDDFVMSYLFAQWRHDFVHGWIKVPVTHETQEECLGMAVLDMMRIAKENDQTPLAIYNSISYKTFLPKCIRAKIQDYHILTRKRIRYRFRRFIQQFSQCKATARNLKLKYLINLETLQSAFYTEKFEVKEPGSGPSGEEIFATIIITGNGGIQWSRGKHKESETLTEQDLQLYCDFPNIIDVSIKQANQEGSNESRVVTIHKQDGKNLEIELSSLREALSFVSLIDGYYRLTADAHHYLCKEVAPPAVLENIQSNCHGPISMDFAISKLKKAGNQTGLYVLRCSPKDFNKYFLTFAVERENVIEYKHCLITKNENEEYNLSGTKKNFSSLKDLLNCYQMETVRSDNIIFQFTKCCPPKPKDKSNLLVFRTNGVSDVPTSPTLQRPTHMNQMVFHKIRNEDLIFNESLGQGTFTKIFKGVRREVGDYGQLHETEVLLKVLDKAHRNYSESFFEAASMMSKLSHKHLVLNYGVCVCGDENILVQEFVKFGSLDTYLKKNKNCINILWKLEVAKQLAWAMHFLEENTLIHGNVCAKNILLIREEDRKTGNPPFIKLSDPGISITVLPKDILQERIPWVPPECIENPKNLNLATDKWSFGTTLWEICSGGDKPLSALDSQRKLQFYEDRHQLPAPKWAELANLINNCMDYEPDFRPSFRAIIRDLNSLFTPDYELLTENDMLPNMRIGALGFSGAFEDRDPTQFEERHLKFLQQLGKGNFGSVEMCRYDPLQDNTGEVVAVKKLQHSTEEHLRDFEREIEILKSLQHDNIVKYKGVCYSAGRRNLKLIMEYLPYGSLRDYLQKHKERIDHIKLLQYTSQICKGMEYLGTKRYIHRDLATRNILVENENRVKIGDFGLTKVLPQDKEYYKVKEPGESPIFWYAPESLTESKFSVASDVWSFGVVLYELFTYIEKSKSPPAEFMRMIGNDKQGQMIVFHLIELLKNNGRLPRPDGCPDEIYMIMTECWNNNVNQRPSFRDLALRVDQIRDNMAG
T1 sequence (P40763 whole entry, species assumed): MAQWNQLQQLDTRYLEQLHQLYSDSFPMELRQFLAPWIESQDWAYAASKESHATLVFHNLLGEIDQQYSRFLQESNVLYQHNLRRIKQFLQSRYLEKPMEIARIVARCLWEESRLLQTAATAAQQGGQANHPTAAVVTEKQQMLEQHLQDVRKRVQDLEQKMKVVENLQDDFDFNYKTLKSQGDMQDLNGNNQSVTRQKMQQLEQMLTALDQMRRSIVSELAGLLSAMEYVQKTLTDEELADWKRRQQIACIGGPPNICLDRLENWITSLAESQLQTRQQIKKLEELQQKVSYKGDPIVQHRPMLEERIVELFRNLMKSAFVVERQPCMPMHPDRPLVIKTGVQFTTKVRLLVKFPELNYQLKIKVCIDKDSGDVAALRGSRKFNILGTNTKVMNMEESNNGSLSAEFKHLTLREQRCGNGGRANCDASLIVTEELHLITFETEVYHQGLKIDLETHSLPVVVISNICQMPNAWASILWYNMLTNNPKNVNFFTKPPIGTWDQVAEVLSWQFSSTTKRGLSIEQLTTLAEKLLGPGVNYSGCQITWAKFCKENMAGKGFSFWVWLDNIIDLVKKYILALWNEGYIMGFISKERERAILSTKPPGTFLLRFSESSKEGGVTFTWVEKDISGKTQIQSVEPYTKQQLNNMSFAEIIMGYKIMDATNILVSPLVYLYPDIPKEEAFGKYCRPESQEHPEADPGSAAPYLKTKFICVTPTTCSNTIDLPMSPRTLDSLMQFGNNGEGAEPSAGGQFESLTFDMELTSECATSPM

CC(=O)OC(C)(C)/C=C/C(=O)[C@](C)(O)[C@H]1[C@H](O)C[C@@]2(C)[C@@H]3CC=C4[C@@H](C[C@H](O)C(=O)C4(C)C)[C@]3(CO)C(=O)C[C@]12C [Cucurbitacin A]
inhibition of activation of JAK2 [1]: inhibits
inhibition of activation of STAT 3 [2]: not

C[C@@H]1CC(=O)c2c(ccc3c2C(=O)c2cccc(O)c2C3=O)C1 [STA-21]
Stat3-dependent luciferase activity [3]: inhibits
Stat3 DNA binding activity [3]: inhibits
Stat3 dimerization [3]: inhibits
effect on cells in which constitutive Stat3 signaling is absent [4]: minimal effect
survival of breast carcinoma cells with constitutive Stat3 signaling [4]: reduces the survival

Stat3 siRNA 3: siRNA target nt. 364-383 of STAT 3, GATTGGGCATATGCGGCCA, retroviral vector; does not inhibit Stat3
inhibition of Stat3 expression [5]: does not inhibit Stat3
rate of cell migration, scratch assay [6]: did not
cell migration, Transwell [7]: did not
inhibitory effect on Stat3 expression [8]: not

CC(=O)OC(C)(C)/C=C/C(=O)[C@](C)(O)[C@H]1[C@H](O)C[C@@]2(C)[C@@H]3CC=C4[C@@H](C=C(O)C(=O)C4(C)C)[C@]3(C)C(=O)C[C@]12C [Cucurbitacin E]
inhibition of activation of JAK2 [1]: inhibit
inhibition of activation of STAT 3 [2]: inhibit

PYLKTK: non-phosphorylated control peptide of PY*LKTK (UniProt P40763 704-709, looked up, fragment)
levels of DNA binding activities of STAT 3 ([9]; peptide present in nuclear extracts): not

Stat3 siRNA 4: siRNA target nt. 1662-1681 of STAT 3, GCGTCCATCCTGTGGTACA, hairpin primers SEQ ID 8 and 9, retroviral vector
inhibition of Stat3 expression [5]: inhibit Stat3 expression
rate of cell migration, scratch assay [6]: impede the rate of cell migration
cell migration, Transwell [7]: hinder the cell migration
inhibition of collagen production [10]: inhibition of collagen production
relative effectiveness among the siRNAs tested ([11]; keloid fibroblast collagen production, proliferation and migration): most effective
cell proliferation of KF48 ([11]; retroviral Stat3 siRNA, vs noninfected, vector and Stat3 siRNA 3, FIG. 6B): decreased cell proliferation
inhibitory effect on Stat3 expression [8]: inhibitory effect

Stat3 siRNA 2: siRNA target nt. 1264-1283 of STAT 3, GGCGTCCAGTTCACTACTA, hairpin primers SEQ ID 6 and 7, retroviral vector
inhibition of Stat3 expression [5]: inhibit Stat3 expression
rate of cell migration, scratch assay [6]: impede the rate of cell migration
cell migration, Transwell [7]: hinder the cell migration
inhibition of collagen production [10]: inhibition of collagen production
inhibitory effect on Stat3 expression [8]: inhibitory effect

PY*L: tripeptide derivative of PY*LKTK, Y* represents phosphotyrosine (Pro-[pY]-Leu; UniProt P40763 704-706, looked up, fragment)
STAT 3 biochemical activity and biological function [9]: inhibit

Cucurbitacin Q
inhibition of activation of JAK2 [1]: not
inhibition of activation of STAT 3 [2]: inhibits

Stat3 siRNA 1: siRNA target nt. 461-480 of STAT 3 (NM—139276), AGTCGAATGTTCTCTATCA, hairpin primers SEQ ID 4 and 5, retroviral vector
inhibition of Stat3 expression [5]: inhibit Stat3 expression
rate of cell migration, scratch assay [6]: impede the rate of cell migration
cell migration, Transwell [7]: hinder the cell migration
inhibition of collagen production [10]: inhibition of collagen production
inhibitory effect on Stat3 expression [8]: inhibitory effect

CC(=O)OC(C)(C)/C=C/C(=O)[C@](C)(O)[C@H]1[C@H](O)C[C@@]2(C)[C@@H]3CC=C4[C@H](C[C@H](O)C(=O)C4(C)C)[C@]3(C)C(=O)C[C@]12C [Cucurbitacin B]
inhibition of activation of JAK2 [1]: inhibit
inhibition of activation of STAT 3 [2]: inhibit
